Experimental data published in PubChem BioAssay AID1918957 (Molecular Pharmacology Branch, DTP, NCI, 2023).

Test system: NCI-H1876 complex spheroid viability
Assay: Anticancer human tumor NCI-H1876 cell line growth inhibition [LSD1];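 note: spheroids exposed to compounds for one week before readout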;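 for viability, T/C: 100% = DMSO vehicle-treated spheroids so lower means fewer viable cells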
Conditions: for IC50: curve of first compound; for viability, T/C: stronger effect = lower value
Summary of the method: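 Multicellular complex spheroids of tumor cells with human endothelial cells (HUVEC) and mesenchymal stem cells; the LSD1 inhibitor iadademstat was combined with standard-of-care or investigational agents. Top concentration at or near clinical Cmax, half-log dilutions; final DMSO ≤0.25%.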

[1] = second compound 0.1 µM, first compound 0.0316 µM
[2] = second compound 0.1 µM, first compound 0.1 µM
[3] = second compound 0.1 µM, first compound 0.316 µM
[4] = second compound 0.1 µM, first compound 1 µM
[5] = second compound 0.1 µM, first compound 3.16 µM
[6] = second compound 0.1 µM, first compound 10 µM
[7] = second compound 0.316 µM, first compound 0.0316 µM
[8] = second compound 0.316 µM, first compound 0.1 µM
[9] = second compound 0.316 µM, first compound 0.316 µM
[10] = second compound 0.316 µM, first compound 1 µM
[11] = second compound 0.316 µM, first compound 3.16 µM
[12] = second compound 0.316 µM, first compound 10 µM
[13] = second compound 1 µM, first compound 0.0316 µM
[14] = second compound 1 µM, first compound 0.1 µM
[15] = second compound 1 µM, first compound 0.316 µM
[16] = second compound 1 µM, first compound 1 µM
[17] = second compound 1 µM, first compound 3.16 µM
[18] = second compound 1 µM, first compound 10 µM
[19] = second compound 3.16 µM, first compound 0.0316 µM
[20] = second compound 3.16 µM, first compound 0.1 µM
[21] = second compound 3.16 µM, first compound 0.316 µM
[22] = second compound 3.16 µM, first compound 1 µM
[23] = second compound 3.16 µM, first compound 3.16 µM
[24] = second compound 3.16 µM, first compound 10 µM
[25] = second compound 10 µM, first compound 0.0316 µM
[26] = second compound 10 µM, first compound 0.1 µM
[27] = second compound 10 µM, first compound 0.316 µM
[28] = second compound 10 µM, first compound 1 µM
[29] = second compound 10 µM, first compound 3.16 µM
[30] = second compound 10 µM, first compound 10 µM
[31] = second compound 0.1 µM, first compound 0.00949 µM
[32] = second compound 0.1 µM, first compound 0.03 µM
[33] = second compound 0.1 µM, first compound 0.0949 µM
[34] = second compound 0.1 µM, first compound 0.3 µM
[35] = second compound 0.316 µM, first compound 0.00949 µM
[36] = second compound 0.316 µM, first compound 0.03 µM
[37] = second compound 0.316 µM, first compound 0.0949 µM
[38] = second compound 0.316 µM, first compound 0.3 µM
[39] = second compound 1 µM, first compound 0.00949 µM
[40] = second compound 1 µM, first compound 0.03 µM
[41] = second compound 1 µM, first compound 0.0949 µM
[42] = second compound 1 µM, first compound 0.3 µM
[43] = second compound 3.16 µM, first compound 0.00949 µM
[44] = second compound 3.16 µM, first compound 0.03 µM
[45] = second compound 3.16 µM, first compound 0.0949 µM
[46] = second compound 3.16 µM, first compound 0.3 µM
[47] = second compound 10 µM, first compound 0.00949 µM
[48] = second compound 10 µM, first compound 0.03 µM
[49] = second compound 10 µM, first compound 0.0949 µM
[50] = second compound 10 µM, first compound 0.3 µM

CC1(C)CCC(CN2CCN(c3ccc(C(=O)NS(=O)(=O)c4ccc(NCC5CCOCC5)c([N+](=O)[O-])c4)c(Oc4cnc5[nH]ccc5c4)c3)CC2)=C(c2ccc(Cl)cc2)C1 + NC1CC1c1ccc(-c2cccc(O)c2)cc1
IC50 (second compound 0.1 µM): 2080 nM | IC50 (second compound 0.316 µM): 2080 nM | IC50 (second compound 1 µM): 2170 nM | IC50 (second compound 3.16 µM): 2060 nM | IC50 (second compound 10 µM): 1920 nM | viability, T/C [1]: 111% | viability, T/C [2]: 110% | viability, T/C [3]: 117% | viability, T/C [4]: 108% | viability, T/C [5]: 16.6% | viability, T/C [6]: 6.77% | viability, T/C [7]: 97.1% | viability, T/C [8]: 85.9% | viability, T/C [9]: 122% | viability, T/C [10]: 110% | viability, T/C [11]: 19.3% | viability, T/C [12]: 7.99% | viability, T/C [13]: 99.5% | viability, T/C [14]: 103% | viability, T/C [15]: 105% | viability, T/C [16]: 111% | viability, T/C [17]: 23.3% | viability, T/C [18]: 7.5% | viability, T/C [19]: 113% | viability, T/C [20]: 122% | viability, T/C [21]: 105% | viability, T/C [22]: 99.8% | viability, T/C [23]: 20.6% | viability, T/C [24]: 8.68% | viability, T/C [25]: 112% | viability, T/C [26]: 120% | viability, T/C [27]: 110% | viability, T/C [28]: 89.2% | viability, T/C [29]: 19.8% | viability, T/C [30]: 6.33%

CC1COCCN1c1cc(C2(S(C)(=N)=O)CC2)nc(-c2ccnc3[nH]ccc23)n1 (stereo not given) + NC1CC1c1ccc(-c2cccc(O)c2)cc1
IC50 (second compound 0.1 µM): 6860 nM | IC50 (second compound 0.316 µM): 6540 nM | IC50 (second compound 1 µM): 6880 nM | IC50 (second compound 3.16 µM): 6240 nM | IC50 (second compound 10 µM): 5610 nM | viability, T/C [1]: 110% | viability, T/C [2]: 114% | viability, T/C [3]: 112% | viability, T/C [4]: 111% | viability, T/C [5]: 94.4% | viability, T/C [6]: 28.4% | viability, T/C [7]: 119% | viability, T/C [8]: 111% | viability, T/C [9]: 113% | viability, T/C [10]: 118% | viability, T/C [11]: 88.5% | viability, T/C [12]: 27.5% | viability, T/C [13]: 124% | viability, T/C [14]: 119% | viability, T/C [15]: 118% | viability, T/C [16]: 111% | viability, T/C [17]: 96.1% | viability, T/C [18]: 28% | viability, T/C [19]: 114% | viability, T/C [20]: 126% | viability, T/C [21]: 120% | viability, T/C [22]: 111% | viability, T/C [23]: 78.4% | viability, T/C [24]: 30.3% | viability, T/C [25]: 112% | viability, T/C [26]: 112% | viability, T/C [27]: 114% | viability, T/C [28]: 99.8% | viability, T/C [29]: 70.8% | viability, T/C [30]: 29.4%

CCN(c1cc(-c2ccc(CN3CCOCC3)cc2)cc(C(=O)NCc2c(C)cc(C)[nH]c2=O)c1C)C1CCOCC1 + NC1CC1c1ccc(-c2cccc(O)c2)cc1
IC50 (second compound 0.1 µM): > 3000 nM | IC50 (second compound 0.316 µM): > 3000 nM | IC50 (second compound 1 µM): > 3000 nM | IC50 (second compound 3.16 µM): > 3000 nM | IC50 (second compound 10 µM): > 3000 nM | viability, T/C [31]: 110% | viability, T/C [32]: 109% | viability, T/C [33]: 110% | viability, T/C [34]: 99.6% | viability, T/C (second compound 0.1 µM, first compound 0.949 µM): 86.6% | viability, T/C (second compound 0.1 µM, first compound 3 µM): 54.8% | viability, T/C [35]: 102% | viability, T/C [36]: 106% | viability, T/C [37]: 102% | viability, T/C [38]: 94.1% | viability, T/C (second compound 0.316 µM, first compound 0.949 µM): 77.3% | viability, T/C (second compound 0.316 µM, first compound 3 µM): 54.1% | viability, T/C [39]: 111% | viability, T/C [40]: 112% | viability, T/C [41]: 104% | viability, T/C [42]: 102% | viability, T/C (second compound 1 µM, first compound 0.949 µM): 88.2% | viability, T/C (second compound 1 µM, first compound 3 µM): 60% | viability, T/C [43]: 109% | viability, T/C [44]: 108% | viability, T/C [45]: 107% | viability, T/C [46]: 97.5% | viability, T/C (second compound 3.16 µM, first compound 0.949 µM): 83.8% | viability, T/C (second compound 3.16 µM, first compound 3 µM): 57.8% | viability, T/C [47]: 106% | viability, T/C [48]: 99.9% | viability, T/C [49]: 111% | viability, T/C [50]: 100% | viability, T/C (second compound 10 µM, first compound 0.949 µM): 79.9% | viability, T/C (second compound 10 µM, first compound 3 µM): 55.3%

Cn1ncnc1C1c2n[nH]c(=O)c3cc(F)cc(c23)NC1c1ccc(F)cc1 (stereo not given) + NC1CC1c1ccc(-c2cccc(O)c2)cc1
IC50 (second compound 0.1 µM): > 100 nM | IC50 (second compound 0.316 µM): > 100 nM | IC50 (second compound 1 µM): > 100 nM | IC50 (second compound 3.16 µM): > 100 nM | IC50 (second compound 10 µM): > 100 nM | viability, T/C (second compound 0.1 µM, first compound 0.000316 µM): 112% | viability, T/C (second compound 0.1 µM, first compound 0.001 µM): 113% | viability, T/C (second compound 0.1 µM, first compound 0.00316 µM): 111% | viability, T/C (second compound 0.1 µM, first compound 0.01 µM): 97.9% | viability, T/C [1]: 92% | viability, T/C [2]: 90% | viability, T/C (second compound 0.316 µM, first compound 0.000316 µM): 108% | viability, T/C (second compound 0.316 µM, first compound 0.001 µM): 106% | viability, T/C (second compound 0.316 µM, first compound 0.00316 µM): 110% | viability, T/C (second compound 0.316 µM, first compound 0.01 µM): 97.4% | viability, T/C [7]: 107% | viability, T/C [8]: 90.1% | viability, T/C (second compound 1 µM, first compound 0.000316 µM): 108% | viability, T/C (second compound 1 µM, first compound 0.001 µM): 115% | viability, T/C (second compound 1 µM, first compound 0.00316 µM): 108% | viability, T/C (second compound 1 µM, first compound 0.01 µM): 106% | viability, T/C [13]: 96.2% | viability, T/C [14]: 87.8% | viability, T/C (second compound 3.16 µM, first compound 0.000316 µM): 109% | viability, T/C (second compound 3.16 µM, first compound 0.001 µM): 110% | viability, T/C (second compound 3.16 µM, first compound 0.00316 µM): 102% | viability, T/C (second compound 3.16 µM, first compound 0.01 µM): 104% | viability, T/C [19]: 90.2% | viability, T/C [20]: 92.9% | viability, T/C (second compound 10 µM, first compound 0.000316 µM): 107% | viability, T/C (second compound 10 µM, first compound 0.001 µM): 102% | viability, T/C (second compound 10 µM, first compound 0.00316 µM): 95.5% | viability, T/C (second compound 10 µM, first compound 0.01 µM): 96.7% | viability, T/C [25]: 89.7% | viability, T/C [26]: 78.8%

Nc1ncn(C2CC(O)C(CO)S2)c(=O)n1 (stereo not given) + NC1CC1c1ccc(-c2cccc(O)c2)cc1
IC50 (second compound 0.1 µM): > 300 nM | IC50 (second compound 0.316 µM): > 300 nM | IC50 (second compound 1 µM): > 300 nM | IC50 (second compound 3.16 µM): 289 nM | IC50 (second compound 10 µM): > 300 nM | viability, T/C (second compound 0.1 µM, first compound 0.000949 µM): 115% | viability, T/C (second compound 0.1 µM, first compound 0.003 µM): 111% | viability, T/C [31]: 99.4% | viability, T/C [32]: 91.2% | viability, T/C [33]: 71% | viability, T/C [34]: 51.3% | viability, T/C (second compound 0.316 µM, first compound 0.000949 µM): 120% | viability, T/C (second compound 0.316 µM, first compound 0.003 µM): 110% | viability, T/C [35]: 99.7% | viability, T/C [36]: 86.4% | viability, T/C [37]: 73.1% | viability, T/C [38]: 54.4% | viability, T/C (second compound 1 µM, first compound 0.000949 µM): 110% | viability, T/C (second compound 1 µM, first compound 0.003 µM): 106% | viability, T/C [39]: 103% | viability, T/C [40]: 90.1% | viability, T/C [41]: 79.4% | viability, T/C [42]: 54.8% | viability, T/C (second compound 3.16 µM, first compound 0.000949 µM): 106% | viability, T/C (second compound 3.16 µM, first compound 0.003 µM): 103% | viability, T/C [43]: 104% | viability, T/C [44]: 89% | viability, T/C [45]: 72.1% | viability, T/C [46]: 49.1% | viability, T/C (second compound 10 µM, first compound 0.000949 µM): 107% | viability, T/C (second compound 10 µM, first compound 0.003 µM): 100% | viability, T/C [47]: 97.2% | viability, T/C [48]: 96.3% | viability, T/C [49]: 69.2% | viability, T/C [50]: 50.4%
